Source: paper PMC5493393 (Journal of medicinal chemistry, 2017)

How the values were obtained:
KOR M142A mutant = assay: 3H-U69593 binding at KOR single point mutant M142A; conditions: vs wild type KOR
KOR [1] = biological target: T1, KOR (Homo sapiens, UniProt P41145); assay type: binding; conditions: for LE (Ligand Efficiency): LE = 1.4(−logKi)/N
KOR [2] = biological target: T1, KOR; assay: KOR-arrestin translocation; assay type: cell-based; conditions: for agonist activity in β-arrestin recruitment: agonist mode, normalized to Sal A
DOR = DOR (Homo sapiens, UniProt P41143); assay: Gi-mediated inhibition of cAMP production at DOR; assay type: cell-based; conditions: relative to KOR agonist activity; Figure S1
MOR = MOR (Homo sapiens, UniProt P35372); assay: Gi-mediated inhibition of cAMP production at MOR; assay type: cell-based; conditions: relative to KOR agonist activity; Figure S1
KOR H291A mutant = assay: 3H-U69593 binding at KOR single point mutant H291A; conditions: vs wild type KOR
KOR I294A mutant = assay: 3H-U69593 binding at KOR single point mutant I294A; conditions: vs wild type KOR
KOR [3] = biological target: T1, KOR; assay: Gi-mediated inhibition of cAMP production; assay type: cell-based
[4] = inhibition of Sal A mediated Gi activation

SMILES	effect of M142A mutation on ligand binding (fold reduction of binding vs WT KOR) (KOR M142A mutant)	LE (Ligand Efficiency) (KOR [1]; Table 2 derivatives) [kcal/mol per heavy atom]	effect of H291A mutation on ligand affinity (fold reduction vs WT KOR) (KOR H291A mutant)	effect of I294A mutation on ligand affinity (fold reduction vs WT KOR) (KOR I294A mutant)	further results
Cc1ccc(C(CNC(=O)c2oc3ccccc3c2C)N2CCCC2)o1 (stereo not drawn) [Compound 69]	enhancing binding				
CC(NCc1nccn1C)c1cccc(O)c1 (stereo not drawn) [Compound 81]					%Inhib (inhibition of 3H-U69593 radioligand binding) (KOR [1]; Table 2 derivatives, 50 μM compound, N=3): 78.81%; agonist activity in β-arrestin recruitment (KOR [2]): minimal β-arrestin recruitment; reduction of agonist activity at DOR (DOR): ≥ 70%; reduction of agonist activity at MOR (MOR): ≥ 70%
O=C(NC[C@@H](c1ccco1)N1CCCC1)c1cc2ccccc2o1 [Compound 71]		0.35			
CCN(Cc1csc(C)n1)C(C)c1cccc(O)c1 (stereo not drawn) [Compound 87]			more than 10 fold	more than 10 fold	
COc1ccc(CNCC(O)c2cccc(O)c2)cc1Br (stereo not drawn) [Compound 67]	at least 10 fold		more than 10 fold	more than 10 fold	
Cc1c(C(=O)NCC(c2ccco2)N2CCCC2)oc2ccc(Cl)cc12 (stereo not drawn) [Compound 72]	enhancing binding				
CC(c1cccc(O)c1)N(C)Cc1nccn1CC(F)(F)F (stereo not drawn) [Compound 28]					%Inhib ± SEM (inhibition of 3H-U69593 radioligand binding) (KOR [1]; Table 1 VLS hits, 50 μM compound, SEM, N=3): 96.9 ± 1.2%; agonist activity in β-arrestin recruitment (KOR [2]): measurable β-arrestin recruitment activity; reduction of agonist activity at DOR (DOR): at least 50%; reduction of agonist activity at MOR (MOR): at least 50%
Cc1ccc(C(CNC(=O)c2oc3ccc(F)cc3c2C)N2CCCC2)o1 (stereo not drawn) [Compound 70]	enhancing binding	0.32			
COC(=O)[C@@H]1C[C@H](OC(C)=O)C(=O)[C@H]2[C@@]1(C)CC[C@H]1C(=O)O[C@H](c3ccoc3)C[C@]21C [Sal A, salvinorin A, reference compound]	at least 10 fold		not affecting binding	not affecting binding	
Oc1cccc(C(O)CNCc2ccc(Cl)cc2Cl)c1 (stereo not drawn) [Compound 64]	at least 10 fold	0.47	more than 10 fold	more than 10 fold	antagonist activity: inhibition of Sal A-induced β-arrestin recruitment (KOR [2]; antagonist mode, 30 nM Sal A, normalized to 5-GNTI): completely inhibiting; functional profile, arrestin versus G-protein assays (KOR [3]; comparison of β-arrestin (Tango) and Gi-cAMP assays): balanced antagonist; Schild slope (KOR [3]; [4]): 1.15 ± 0.06; pA2 (Schild analysis) (KOR [3]; [4]): 6.78 ± 0.11
COc1ccc2oc(C(=O)NCC(c3ccco3)N3CCCC3)c(C)c2c1 (stereo not drawn) [Compound 73]		0.32			
